# Test results reported in article PMC6459026 (European journal of medicinal chemistry, 2019).
# Columns and labels:
# HIV-1 RT pol = HIV-1 RT pol (Human immunodeficiency virus type 1 group M subtype B, UniProt P04585); assay: RT polymerase assay; assay type: biochemical
# HIV-1 IN (INST activity) = HIV-1 IN (INST activity) (Human immunodeficiency virus type 1 group M subtype B, UniProt P04585); assay: biochemical
SMILES,IC50 (HIV-1 RT pol) [µM],IC50 (HIV-1 IN (INST activity)) [µM]
"Cc1ccc(C(=O)c2cc(=O)n(O)c(=O)[nH]2)cc1 [Compound 7a, 3-Hydroxy-6-(4-methylbenzoyl)pyrimidine-2,4(1H,3H)-dione]",> 10,
"O=C(c1ccc(C(F)(F)F)cc1)c1cc(=O)n(O)c(=O)[nH]1 [Compound 7b, 3-Hydroxy-6-(4-(trifluoromethyl)benzoyl)pyrimidine-2,4(1H,3H)-dione]",> 10,
"O=C(c1ccc(F)cc1)c1cc(=O)n(O)c(=O)[nH]1 [Compound 7c, 6-(4-Fluorobenzoyl)-3-hydroxypyrimidine-2,4(1H,3H)-dione]",> 10,
"COC(=O)c1ccc(C(=O)c2cc(=O)n(O)c(=O)[nH]2)cc1 [Compound 7d, Methyl 4-(1-hydroxy-2,6-dioxo-1,2,3,6-tetrahydropyrimidine-4-carbonyl)benzoate]",> 10,
"Cc1cc(C)cc(C(=O)c2cc(=O)n(O)c(=O)[nH]2)c1 [Compound 7e, 6-(3,5-Dimethylbenzoyl)-3-hydroxypyrimidine-2,4(1H,3H)-dione]",> 10,
"Cc1ccc(-c2ccc(C(=O)c3cc(=O)n(O)c(=O)[nH]3)cc2)cc1 [Compound 8a, 3-Hydroxy-6-(4’-methyl-[1,1’-biphenyl]-4-carbonyl)pyrimidine-2,4(1H,3H)-dione]",> 10,
"O=C(c1ccc(-c2ccc(C(F)(F)F)cc2)cc1)c1cc(=O)n(O)c(=O)[nH]1 [Compound 8b, 3-Hydroxy-6-(4’-(trifluoromethyl)-[1,1’-biphenyl]-4-carbonyl)pyrimidine-2,4(1H,3H)-dione]",> 10,> 100
"O=C(c1ccc(-c2ccc(F)cc2)cc1)c1cc(=O)n(O)c(=O)[nH]1 [Compound 8c, 6-(4’-Fluoro-[1,1’-biphenyl]-4-carbonyl)-3-hydroxypyrimidine-2,4(1H,3H)-dione]",> 10,
"COC(=O)c1ccc(-c2ccc(C(=O)c3cc(=O)n(O)c(=O)[nH]3)cc2)cc1 [Compound 8d, Methyl 4’-(1-hydroxy-2,6-dioxo-1,2,3,6-tetrahydropyrimidine-4-carbonyl)-[1,1’-biphenyl]-4-carboxylate]",> 10,
"Cc1cc(C)cc(-c2ccc(C(=O)c3cc(=O)n(O)c(=O)[nH]3)cc2)c1 [Compound 8e, 6-(3’,5’-Dimethyl-[1,1’-biphenyl]-4-carbonyl)-3-hydroxypyrimidine-2,4(1H,3H)-dione]",> 10,
"O=C(c1ccc(-c2ccccc2)cc1)c1cc(=O)n(O)c(=O)[nH]1 [Compound 8f, 6-([1,1’-Biphenyl]-4-carbonyl)-3-hydroxypyrimidine-2,4(1H,3H)-dione]",> 10,
"O=C(c1cccc(-c2ccccc2)c1)c1cc(=O)n(O)c(=O)[nH]1 [Compound 8g, 6-([1,1’-Biphenyl]-3-carbonyl)-3-hydroxypyrimidine-2,4(1H,3H)-dione]",> 10,
"COc1ccc(-c2ccc(C(=O)c3cc(=O)n(O)c(=O)[nH]3)cc2)cc1 [Compound 8h, 3-Hydroxy-6-(4’-methoxy-[1,1’-biphenyl]-4-carbonyl)pyrimidine-2,4(1H,3H)-dione]",,> 100
"O=C(c1ccc(-c2ccc(Cl)c(F)c2)cc1)c1cc(=O)n(O)c(=O)[nH]1 [Compound 8l, 6-(4’-Chloro-3’-fluoro-[1,1’-biphenyl]-4-carbonyl)-3-hydroxypyrimidine-2,4(1H,3H)-dione]",> 10,
"CCOCn1c(C(=O)c2ccc(-c3ccccc3)cc2)cc(=O)n(O)c1=O [Compound 16f, 6-([1,1’-Biphenyl]-4-carbonyl)-1-(ethoxymethyl)-3-hydroxypyrimidine-2,4(1H,3H)-dione]",> 10,> 100
"CCOCn1c(C(=O)c2cccc(-c3ccccc3)c2)cc(=O)n(O)c1=O [Compound 16g, 6-([1,1’-Biphenyl]-3-carbonyl)-1-(ethoxymethyl)-3-hydroxypyrimidine-2,4(1H,3H)-dione]",> 10,> 100
"CCOCn1c(C(C#N)c2cc(C)cc(C)c2)cc(=O)n(O)c1=O (centres unmarked) [Compound 17e, 2-(3,5-Dimethylphenyl)-2-(3-(ethoxymethyl)-1-hydroxy-2,6-dioxo-1,2,3,6-tetrahydropyrimidin-4-yl)acetonitrile]",> 10,> 100
"CCOCn1c(C(C#N)c2ccc(-c3ccccc3)cc2)cc(=O)n(O)c1=O (centres unmarked) [Compound 18f, 2-([1,1’-Biphenyl]-4-yl)-2-(3-(ethoxymethyl)-1-hydroxy-2,6-dioxo-1,2,3,6-tetrahydropyrimidin-4-yl)acetonitrile]",> 10,> 100
